Data published in US20250129086A1, “COMPOUND FOR DEGRADING EGFR PROTEIN AND USE THEREOF” (TYK MEDICINES, INC., priority 2021, published 2025).

Assays:
Assay type in all cases: cell-based, human
[1] = system: PC-9 (EGFR exon 19 deletion); assay: Cell antiproliferative assay (CTG, 72 h), PC-9; conditions: Homo sapiens, Table 2, PC-9 cells
Procedure: (§1) Test Example 1 Cell Antiproliferative Assay
(§2) H1975: with EGFR: L858R/T790M double mutation; PC-9 with EGFR exon 19 deletion, HCC827 with exon 19 deletion mutation. CellCounting-Lite2.0, Trypsin EDTA, 37° C. CO2 incubator, cell counter, EnVision Serial No.1050454. II. Experimental preparation:
(§3) • (A) Trypsin EDTA was used to digest log-phase cells, medium was added to terminate the reaction, and a cell suspension was made by blowing and mixing with a pipette. • (B) Cell concentration was determined using Vi-cell, and a suspension of 15,000-25,000 cells per milliliter was made depending on the purpose of the experiment and the characteristics of the cells. • (C) After the cell suspension was prepared, it was gently mixed and 100 microliters per well was added so that the density of cells to be tested was 1500-2500 per well.
(§4) • (A) About 2 mg of compound was weighed, and the volume of DMSO required was calculated according to the formula: compound mass (mg)*compound purity (%)/compound molecular weight*1000 • (B) The inoculated cell culture plates were incubated in an incubator and the compounds with concentration gradient were added after about 24 hours. • (C)10 Mm of compound stock solution was diluted to […] with medium, and 50 Mm of compound solution was added sequentially to the second column of the deep-well plate, and […] of medium containing 0.5% DMSO was added to the third to eleventh columns. • (D) Gradient dilution: 125 μl of solution was pipetted from the second column and added to the third column, after mixing; another 125 μl of solution was pipetted from the third column and added to the fourth column, and the operation was repeated until the tenth column. • (E)25 μl of compound was pipetted from the deep-well plate into a 96-well culture plate using a multichannel pipette, and each compound was repeated three times on the 96-well plate. A maximum concentration of 10,000 nm with concentration gradient of 1:4 was eventually formed on the 96-well plate.
(§5) • (A)96-well plates were incubated in an incubator for 72 h. The effect of the compounds was observed under an inverted microscope. • (B)25 μl of CTG solution was added to each well, the plate was put on shaker for 10 minutes and the […] of each well was read.
(§6) The cell viability rate (% Cell Viability) was calculated using the following formula: • % Cell Viability=100%×(Lum_Sample-Lum_LC)/(Lum_HC-Lum_LC) • Lum_HC: Cell reading of 0.1% DMSO control • Lum_Sample: Cell reading with compound added • Lum_LC: Reading of Blank media • IC50 values were obtained by curve fitting with GraphPad Prism 8 software.

[2] = system: HCC827 (exon 19 deletion mutation); assay: Cell antiproliferative assay (CTG, 72 h), HCC827; conditions: Homo sapiens, Table 2, HCC827 cells
Procedure: as §1, §2, §3, §4, §5, §6

[3] = system: H1975 (EGFR L858R/T790M double mutation); assay: Cell antiproliferative assay (CTG, 72 h), H1975; conditions: Homo sapiens
Procedure: as §1, §2, §3, §4, §5, §6

[4] = NCI-H1975, 72 h, Table 2, H1975 cells

| Structure (SMILES) | IC50 ([1]; PC-9, 72 h) [nM] | IC50 ([2]; HCC827, 72 h) [nM] | IC50 [3, 4] [nM] | IC50 [1] [nM] | IC50 [2] [nM] | IC50 ([3]; NCI-H1975, Table 2, H1975 cells) [nM] |
| --- | --- | --- | --- | --- | --- | --- |
| COc1cc(N2CCN(C(=O)CN3CCC(c4ccc(NC5CCC(=O)NC5=O)cc4)CC3)CC2)ccc1Nc1ncc(Cl)c(Nc2ccccc2C#N)n1 (stereo not drawn) [Compound T-139] | ≥ 1000 | 100 to 1000 | 100 to 1000 | – | – | – |
| COc1cc(N2CCN(C(=O)CN3CCC(c4ccc(NC5CCC(=O)NC5=O)cc4)CC3)CC2)ccc1Nc1ncc(Cl)c(Nc2ccccc2OC(=O)N(C)C)n1 (stereo not drawn) [Compound T-152] | – | – | – | ≥ 1000 | ≥ 1000 | 100 to 1000 |
| COc1cc(N2CCC[C@H](NC(=O)CN3CCC(c4ccc(NC5CCC(=O)NC5=O)cc4)CC3)C2)ccc1Nc1ncc(Cl)c(Nc2ccccc2C(C)=O)n1 (stereo partly drawn) [Compound T-166] | ≥ 1000 | ≥ 1000 | 100 to 1000 | – | – | – |
| COc1cc(N2CCC[C@H](N(C)CN3CCC(c4ccc(NC5CCC(=O)NC5=O)cc4)CC3)C2)ccc1Nc1ncc(Cl)c(Nc2ccccc2C(C)=O)n1 (stereo partly drawn) [Compound T-167] | ≥ 1000 | ≥ 1000 | 100 to 1000 | – | – | – |
| COc1cc(N2CC(N(C)C(=O)CN3CCC(c4ccc(NC5CCC(=O)NC5=O)cc4)CC3)C2)ccc1Nc1ncc(Cl)c(Nc2ccccc2C(C)=O)n1 (stereo not drawn) [Compound T-170] | ≥ 1000 | ≥ 1000 | 100 to 1000 | – | – | – |
| COc1cc(N2CC[C@@H](N(C)C(=O)CN3CCC(c4ccc(NC5CCC(=O)NC5=O)cc4)CC3)C2)ccc1Nc1ncc(Cl)c(Nc2ccccc2C(C)=O)n1 (stereo partly drawn) [Compound T-171] | ≥ 1000 | 100 to 1000 | 10 to 100 | – | – | – |
| COc1cc(N2CC[C@@H](NC(=O)CN3CCC(c4ccc(NC5CCC(=O)NC5=O)cc4)CC3)C2)ccc1Nc1ncc(Cl)c(Nc2ccccc2C(C)=O)n1 (stereo partly drawn) [Compound T-173] | ≥ 1000 | 100 to 1000 | 100 to 1000 | – | – | – |
| COc1cc(N2CC[C@H](NC(=O)CN3CCC(c4ccc(NC5CCC(=O)NC5=O)cc4)CC3)C2)ccc1Nc1ncc(Cl)c(Nc2ccccc2C(C)=O)n1 (stereo partly drawn) [Compound T-174] | ≥ 1000 | ≥ 1000 | 100 to 1000 | – | – | – |
| CC(=O)c1ccccc1Nc1nc(Nc2ccc(N3CCN(C(=O)CN4CCC(c5ccc(NC6CCC(=O)NC6=O)cc5)CC4)CC3)cc2OC(C)C)ncc1Cl (stereo not drawn) [Compound T-179] | ≥ 1000 | ≥ 1000 | 100 to 1000 | – | – | – |
| C=CC(=O)Nc1cc(Nc2ncc(C(F)(F)F)c(Nc3ccccc3)n2)c(OC)cc1N(C)CCN(C)C(=O)CN1CCC(c2ccc(NC3CCC(=O)NC3=O)cc2)CC1 (stereo not drawn) [Compound T-180] | ≥ 1000 | ≥ 1000 | 100 to 1000 | – | – | – |
| COc1cc(N2CCN(C(=O)CN3CCC(c4ccc(NC5CCC(=O)NC5=O)cc4)CC3)CC2)ccc1Nc1ncc(Cl)c(Nc2ccccc2C(C)(C)O)n1 (stereo not drawn) [Compound T-196] | 100 to 1000 | 100 to 1000 | 10 to 100 | – | – | – |
| COc1cc(N2CCN(C(=O)CN3CCC(c4ccc(NC5CCC(=O)NC5=O)cc4)CC3)CC2)ccc1Nc1ncc(Cl)c(Nc2ccc(F)cc2C(C)(C)O)n1 (stereo not drawn) [Compound T-199] | 100 to 1000 | 100 to 1000 | 10 to 100 | – | – | – |
| COc1cc(N2CCN(C(=O)CN3CCC(c4ccc(NC5CCC(=O)NC5=O)cc4)CC3)CC2)ccc1Nc1ncc(Cl)c(Nc2ccccc2OC)n1 (stereo not drawn) [Compound T-200] | 100 to 1000 | 100 to 1000 | 10 to 100 | – | – | – |
| COc1cc(N2CCN(CCC3CCN(c4ccc5c(c4)C(=O)N(C4CCC(=O)NC4=O)C5=O)CC3)CC2)ccc1Nc1ncc(Cl)c(Nc2ccccc2C(C)=O)n1 (stereo not drawn) [Compound T-212] | ≥ 1000 | 100 to 1000 | 100 to 1000 | – | – | – |
| COc1cc(OC2CCN(C(=O)CN3CCC(c4ccc(NC5CCC(=O)NC5=O)cc4)CC3)CC2)ccc1Nc1ncc(Cl)c(Nc2ccccc2C(C)=O)n1 (stereo not drawn) [Compound T-214] | ≥ 1000 | 100 to 1000 | 100 to 1000 | – | – | – |
| COc1cc(N2CCN(C(=O)CN3CCC(c4ccc(NC5CCC(=O)NC5=O)cc4)CC3)CC2)ccc1Nc1ncc(Cl)c(Nc2ccccc2NS(C)(=O)=O)n1 (stereo not drawn) [Compound T-218] | 100 to 1000 | 10 to 100 | 10 to 100 | – | – | – |
| COc1cc(N2CCC(CN3CCN(c4ccc5c(c4)C(=O)N(C4CCC(=O)NC4=O)C5=O)CC3)CC2)ccc1Nc1ncc(Cl)c(Nc2ccccc2C(C)=O)n1 (stereo not drawn) [Compound T-225] | ≥ 1000 | ≥ 1000 | 100 to 1000 | – | – | – |
| COc1cc(N2CCN(CC3CCN(c4ccc5c(c4)C(=O)N(C4CCC(=O)NC4=O)C5=O)CC3)CC2)ccc1Nc1ncc(Cl)c(Nc2ccccc2C(C)=O)n1 (stereo not drawn) [Compound T-226] | ≥ 1000 | 100 to 1000 | 100 to 1000 | – | – | – |
| COc1cc(N2CCN(C(=O)CC3CCN(c4ccc5c(c4)C(=O)N(C4CCC(=O)NC4=O)C5=O)CC3)CC2)ccc1Nc1ncc(Cl)c(Nc2ccccc2C(C)=O)n1 (stereo not drawn) [Compound T-231] | ≥ 1000 | 10 to 100 | 100 to 1000 | – | – | – |
| C=CC(=O)Nc1cc(Nc2nccc(-c3cn(C)c4ccccc34)n2)c(OC)cc1N(C)CCN(C)CC(=O)N1CCC(c2ccc(NC3CCC(=O)NC3=O)cc2)CC1 (stereo not drawn) [Compound T-237] | 100 to 1000 | 100 to 1000 | ≥ 1000 | – | – | – |
| COc1cc(N2CCN(c3ncc(Cl)c(Nc4ccccc4C(C)=O)n3)CC2)ncc1NC(=O)CN1CCC(c2ccc(NC3CCC(=O)NC3=O)cc2)CC1 (stereo not drawn) [Compound T-239] | ≥ 1000 | 100 to 1000 | ≥ 1000 | – | – | – |
| COc1cc(N2CCN(C(=O)CN3CCC(c4ccc(NC5CCC(=O)NC5=O)cc4)CC3)CC2)c(C)cc1Nc1ncc(Cl)c(Nc2ccccc2C(=O)N(C)C)n1 (stereo not drawn) [Compound T-241] | 100 to 1000 | 100 to 1000 | ≤ 10 | – | – | – |
| COc1cc(N2CCN(C(=O)CN3CCC(c4ccc(NC5CCC(=O)NC5=O)cc4)C3)CC2)ccc1Nc1ncc(Cl)c(Nc2ccccc2C(C)=O)n1 (stereo not drawn) [Compound T-242] | 100 to 1000 | 100 to 1000 | 100 to 1000 | – | – | – |

Continued, in another order:

| IC50 ([1]; PC-9, 72 h) [nM] | IC50 ([2]; HCC827, 72 h) [nM] | IC50 [3, 4] [nM] | Structure (SMILES) | IC50 [1] [nM] | IC50 [2] [nM] | IC50 ([3]; NCI-H1975, Table 2, H1975 cells) [nM] |
| --- | --- | --- | --- | --- | --- | --- |
| 100 to 1000 | 100 to 1000 | 10 to 100 | O=C1CCC(Nc2ccc(C3CCN(CC(=O)N4CCN(c5ccc(-c6cc(F)c7c(c6)C(=O)N(C(C(=O)Nc6nccs6)c6ccccc6F)C7)cc5)CC4)CC3)cc2)C(=O)N1 (stereo not drawn) [Compound T-140] | – | – | – |
| 100 to 1000 | ≥ 1000 | 100 to 1000 | COc1cc(N2CCN(C(=O)CN3CCC(c4cccc(NC5CCC(=O)NC5=O)c4)CC3)CC2)ccc1Nc1ncc(Cl)c(Nc2ccccc2C(C)=O)n1 (stereo not drawn) [Compound T-181] | – | – | – |
| 100 to 1000 | 100 to 1000 | 10 to 100 | COc1cc(N2CC3CN(C(=O)CN4CCC(c5ccc(NC6CCC(=O)NC6=O)cc5)CC4)CC3C2)ccc1Nc1ncc(Cl)c(Nc2ccccc2C(C)=O)n1 (stereo not drawn) [Compound T-188] | – | – | – |
| 100 to 1000 | 100 to 1000 | 10 to 100 | COc1cc(N2C[C@H]3CN(C(=O)CN4CCN(c5ccc(NC6CCC(=O)NC6=O)cc5)CC4)C[C@H]3C2)ccc1Nc1ncc(Cl)c(Nc2ccccc2C(C)=O)n1 (stereo partly drawn) [Compound T-189] | – | – | – |
| 100 to 1000 | 100 to 1000 | 100 to 1000 | COc1cc(N2CCN(C(=O)CN3CCC(c4ccccc4NC4CCC(=O)NC4=O)CC3)CC2)ccc1Nc1ncc(Cl)c(Nc2ccccc2C(C)=O)n1 (stereo not drawn) [Compound T-193] | – | – | – |
| 100 to 1000 | 100 to 1000 | 10 to 100 | COc1cc(N2CCN(C(=O)CN3CCC(c4ccc(NC5CCC(=O)NC5=O)cc4)CC3)CC2)ccc1Nc1ncc(Cl)c(Nc2ccccc2NC(C)=O)n1 (stereo not drawn) [Compound T-195] | – | – | – |
| 10 to 100 | 10 to 100 | ≤ 10 | COc1cc(N2CCN(C(=O)CN3CCC(c4ccc(NC5CCC(=O)NC5=O)cc4)CC3)CC2)ccc1Nc1ncc(Cl)c(Nc2ccc(Cl)cc2C(C)(C)O)n1 (stereo not drawn) [Compound T-243] | – | – | – |
| 10 to 100 | 10 to 100 | 10 to 100 | COc1cc(N2CCN(C(=O)CN3CCC(c4ccc(NC5CCC(=O)NC5=O)cc4)CC3)CC2)ncc1Nc1ncc(Cl)c(Nc2ccccc2C(C)=O)n1 (stereo not drawn) [Compound T-244] | – | – | – |
| 10 to 100 | 10 to 100 | ≤ 10 | COc1ccc(Nc2nc(Nc3ccc(N4CCN(C(=O)CN5CCC(c6ccc(NC7CCC(=O)NC7=O)cc6)CC5)CC4)cc3OC)ncc2Cl)c(C(C)=O)c1 (stereo not drawn) [Compound T-249] | – | – | – |
| 10 to 100 | 10 to 100 | ≤ 10 | CNC(=O)c1ccccc1Nc1nc(Nc2cc(C)c(N3CCN(C(=O)CN4CCC(c5ccc(NC6CCC(=O)NC6=O)cc5)CC4)CC3)cc2OC)ncc1Br (stereo not drawn) [Compound T-255] | – | – | – |
